Data on three compounds can be found in paper PMC7154053, “Chemical, Metabolic, and Cellular Characterization of a FtsZ Inhibitor Effective Against Burkholderia cenocepacia” (Frontiers in Microbiology, 2020).

As a reminder, the IC50 is the concentration that inhibits the measured activity by half. What is called melting point is the temperature of the solid-liquid transition.

In data set [1] the target is T1, B. cenocepacia nitroreductase BCAL0539 (BcNR) (Burkholderia cenocepacia, UniProt B4E8I2).
T1 sequence (B4E8I2 1-242): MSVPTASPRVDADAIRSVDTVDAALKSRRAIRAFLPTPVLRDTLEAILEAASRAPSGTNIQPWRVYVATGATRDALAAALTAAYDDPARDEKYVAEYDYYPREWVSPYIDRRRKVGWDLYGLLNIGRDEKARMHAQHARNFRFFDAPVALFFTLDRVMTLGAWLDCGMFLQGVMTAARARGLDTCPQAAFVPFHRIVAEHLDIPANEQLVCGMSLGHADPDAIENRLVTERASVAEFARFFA
In words: BcNR nitroreductase steady-state kinetics (NADPH decrease at 340 nm). Type of data set: biochemical. The following applies: compound as substrate of BcNR. On the procedure: The reaction mixture typically contained 50 mM potassium phosphate pH 8.0, 50 mM KCl, 5–10 μM BcNR, and reactions were started by adding the substrate. Steady-state kinetics parameters were determined by assaying the enzyme at variable concentrations of substrate (10–500 μM). The experiments were performed in triplicate, and the kinetic constants Km and kcat determined by fitting the data to the Michaelis-Menten equation using Origin 8 software.

Data set [2] concerns B. cenocepacia FCF19. As to the kind of experiment: MIC, 2-fold microdilution, resazurin method. The format is cell-based, Burkholderia cenocepacia. The following applies: Burkholderia cenocepacia; clinical isolate FCF19. On the procedure: (§1) Burkholderia cenocepacia strains, Escherichia coli ATCC 25922, Pseudomonas aeruginosa PAO1, and Staphylococcus aureus ATCC 25923 were grown in Luria-Bertani (LB) medium (Difco), if not differently specified, with shaking at 200 rpm, or on LB agar, at 37°C.
(§2) The microtiter plates were incubated at 37°C for 48 (for B. cenocepacia) or 24 h (for all the other strains) and growth was determined by the resazurin method (Martin et al., [2006]). A solution of resazurin sodium salt (Sigma Aldrich) was prepared at 0.01% in distilled water and filter-sterilized. Thirty microliter of resazurin solution were added to each well after 1 or 2 days of incubation at 37°C, and the microtiters were re-incubated at the same temperature for 4 h. The MIC was defined as the lowest concentration of the drug that prevented a change in color from blue to pink, which indicates bacterial growth.
(§3) Three independent biological replicates were used for each MIC determination.

Data set [3] deals with B. cenocepacia FCF22. In words: MIC, 2-fold microdilution, resazurin method. The format is cell-based, Burkholderia cenocepacia. The following applies: Burkholderia cenocepacia; clinical isolate FCF22. On the procedure: as §1, §2, §3
Background: In broth dilution the organism is exposed to a series of concentrations in liquid medium.

In a further data set the test system is B. cenocepacia J2315. In words: MIC, 2-fold microdilution, resazurin method. The format is cell-based, Burkholderia cenocepacia. Particulars: for MIC: Burkholderia cenocepacia, J2315; for activity compared with C109, in words: SAR statements, against both bacteria and the purified enzyme. On the procedure: as §1, §2, §3
In the next data set the test system is E. coli ATCC 25922. As to the kind of experiment: MIC, 2-fold microdilution, resazurin method. The format is cell-based. The following applies: Escherichia coli, ATCC25922. The procedure: as §1, §2, §3
A further data set concerns P. aeruginosa PAO1. In words: MIC, 2-fold microdilution, resazurin method. Type of data set: cell-based. The following applies: Pseudomonas aeruginosa, PAO1. The procedure: as §1, §2, §3
In the next data set the test system is S. aureus ATCC 25923. As to the kind of experiment: MIC, 2-fold microdilution, resazurin method. Type of data set: cell-based, Staphylococcus aureus. Particulars: Staphylococcus aureus, ATCC25923. On the procedure: as §1, §2, §3
Data set [4] concerns the target Burkholderia cenocepacia purified FtsZ protein (Burkholderia cenocepacia, UniProt B4E5Y7). In words: biochemical. Type of data set: biochemical. The following applies: for Inhibition of Bc FtsZ At 100 μM: 100 μM compound; for Inhibition of Bc FtsZ At 100 μM / Inhibits B. cenocepacia FtsZ GTPase at 100µM?: Yes/No; for Inhibits B. cenocepacia FtsZ GTPase at 100µM?: Supplementary Table 1. On the procedure: All the recombinant FtsZ proteins were expressed at 20°C overnight in E. coli BL21(DE3) cells, upon induction with 0.5 mM IPTG, and purified using the same protocol assessed for the wild-type B. cenocepacia FtsZ (Hogan et al., [2018]).
GTPase enzyme activity was determined using a pyruvate kinase/L-lactic dehydrogenase (PK/LDH) spectrophotometric coupled assay (Ingerman and Nunnari, [2005]). The assays were performed at 30°C, in a reaction mixture containing […] Hepes pH 7.5, 5 mM MgCl2, 5 mM KCl, 10 U PK/LDH, 0.25 mM NADH, 0.25 mM PEP, and 5–10 μM FtsZ, and initiated by the addition of 0.5 mM GTP. Alternatively, GTPase activity was determined by measuring the release of phosphate using the malachite green assay (Baykov et al., [1988]).
(1) A[I]=A[0]×(1-[I]/[I]+IC50)
where A[I] is the enzyme activity at inhibitor concentration [I] and A[0] is the enzyme activity without inhibitor.

Another data set deals with P. aeruginosa. In words: Checkerboard assay with efflux pump inhibitor PaβN MC-207.110. The format is cell-based, Pseudomonas aeruginosa. Particulars: Pseudomonas aeruginosa; read-out: MIC in the presence of MC-207.110, P. aeruginosa. The procedure:
as §2, with “growth. […] Three independent biological replicates were used for each MIC determination.” for “growth.”

In data set [5] the test system is B. cenocepacia FCF19. The data set is described as above. The format is cell-based, Burkholderia cenocepacia. The following applies: checkerboard, MC-207.110 0–128 μg/ml; C109 value at 128 μg/ml. The procedure: as §2, with “growth. […] Three independent biological replicates were used for each MIC determination.” for “growth.”
The test system of data set [6] is B. cenocepacia FCF22. The data set is described as above. Type of data set: cell-based, Burkholderia cenocepacia. Particulars: checkerboard, MC-207.110 0–128 μg/ml; C109 value at 128 μg/ml. The procedure:
as §2, with “growth. […] Three independent biological replicates were used for each MIC determination.” for “growth.”

Data set [7] concerns CF bronchial epithelial (CFBE41o-) cell line. As to the kind of experiment: Toxicity by MTT assay. Type of data set: cell-based. The following applies: CFBE41o- cells, data not shown. (In general: Formazan colour is commonly taken as a measure of viable cells.)
A further data set has as its system B. cenocepacia. In words: Resazurin-based assay of BcNR reaction mixtures. The following applies: BcNR reactions with 1 mM C109, with or without NADPH; C109 result: in the absence of NADPH. The format is cell-based, Burkholderia cenocepacia. The source says:
To assess whether the resulting BcNR reduction product could inhibit B. cenocepacia growth, we carried out a resazurin-based assay.
For orientation: The colour change of resazurin is a common sign of viable cells or microbes.

[8] abbreviates: LB, 48 h, read-out: MIC B. cenocepacia J2315.
The mark [9] stands for this setting: Supplementary Table 1, read-out: MIC (µg/ml) B. cenocepacia J2315.
[10] abbreviates: LB, 24 h, read-out: MIC E. coli 25922.
The mark [11] stands for this setting: Supplementary Table 1, read-out: MIC (µg/ml) E. coli 25922.
[12] abbreviates: LB, 24 h, read-out: MIC S. aureus 25923.
Where [13] appears, read: Supplementary Table 1, read-out: MIC (µg/ml) S. aureus 25923.

Converted amounts (≈) assume the structure as drawn. Read-outs that look alike come from different tables or passages of the source. Bounds are passed on as bounds.

Chain of Burkholderia cenocepacia purified FtsZ protein (B4E5Y7 entry or part of it): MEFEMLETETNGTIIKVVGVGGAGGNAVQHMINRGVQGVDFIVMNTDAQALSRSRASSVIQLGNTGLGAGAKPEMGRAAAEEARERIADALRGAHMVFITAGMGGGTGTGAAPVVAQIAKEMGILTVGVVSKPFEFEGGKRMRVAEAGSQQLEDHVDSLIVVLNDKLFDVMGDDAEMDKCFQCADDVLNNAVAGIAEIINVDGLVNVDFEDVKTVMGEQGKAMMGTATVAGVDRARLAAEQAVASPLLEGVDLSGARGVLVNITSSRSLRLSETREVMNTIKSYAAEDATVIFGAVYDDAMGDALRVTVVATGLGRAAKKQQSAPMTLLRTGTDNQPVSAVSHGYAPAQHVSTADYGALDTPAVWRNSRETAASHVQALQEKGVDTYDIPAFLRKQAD

With `O=C(O)c1ccc([N+](=O)[O-])cc1` [4-nitrobenzoic acid], in data set [1], the “Vmax (Figure 3)” value was found to be 17.5 ± 1.4 s⁻¹.

As to `CCOC(=O)CSc1ccc2nsnc2c1[N+](=O)[O-]` [compound 11426142], the melting point lay in the range of 172 to 174 °C. The same compound had an MIC in the data set with B. cenocepacia FCF19 [2] of 32 µg/mL (≈ 107 µM). For the same compound, the MIC against B. cenocepacia FCF22 [3] worked out at 32 µg/mL (≈ 107 µM). For the same compound, the MIC in the data set with B. cenocepacia J2315 (setting [8]) stood at 32 µg/mL (≈ 107 µM). Besides, the MIC in the data set with B. cenocepacia J2315 (setting [9]) stood at 32 µg/mL (≈ 107 µM). In addition, in the data set with B. cenocepacia J2315, the “activity compared with C109, in words” value was “partially lost activity”. The MIC with E. coli ATCC 25922 (setting [10]) was 8 µg/mL (≈ 26.7 µM). In the data set on E. coli ATCC 25922 (setting [11]), the MIC stood at 8 µg/mL (≈ 26.7 µM). Besides, the MIC in the data set with P. aeruginosa PAO1 (LB, 24 h, read-out: MIC P. aeruginosa PAO1) worked out at 32 µg/mL (≈ 107 µM). Further, the MIC with P. aeruginosa PAO1 (Supplementary Table 1, read-out: MIC (µg/ml) P. aeruginosa PAO1) was determined as 32 µg/mL (≈ 107 µM). For the same compound, in the data set on S. aureus ATCC 25923 (setting [12]), the MIC was 4 µg/mL (≈ 13.4 µM). In the data set on S. aureus ATCC 25923 (setting [13]), the MIC is 4 µg/mL (≈ 13.4 µM). Besides, in data set [4], the 50% inhibitory concentration (IC50) is 21 µM, the “Inhibition of Bc FtsZ At 100 μM” value is listed as “Yes” and the “Inhibits B. cenocepacia FtsZ GTPase at 100µM?” value was “Yes”. Moreover, the MIC with P. aeruginosa is 2 µg/mL. Moreover, the “MIC in the presence of MC-207.110, FCF19” value with B. cenocepacia FCF19 [5] was “did not change”. Further, the “MIC in the presence of MC-207.110, FCF22” value in the data set with B. cenocepacia FCF22 [6] is “did not change”. In [7], the “toxic concentration at 50% (TC50)” value turned out to be 50 µM.

`O=C1CSc2ccc3nsnc3c2N1` [compound 11626109, 7H-[1,2,5]thiadiazolo[3,4-f][1,4]benzothiazin-8(9H)-one] gave a melting point of 211 to 213 °C. In the data set on B. cenocepacia J2315 (setting [8]), the MIC is 512 µg/mL (≈ 2290 µM). Also, the MIC with B. cenocepacia J2315 (setting [9]) is 512 µg/mL (≈ 2290 µM). Besides, the “activity compared with C109, in words” value in the data set with B. cenocepacia J2315 is “loss of activity”. The MIC in the data set on E. coli ATCC 25922 (setting [10]) is more than 512 µg/mL. In addition, in the data set with E. coli ATCC 25922 (setting [11]), the MIC is more than 512 µg/mL. For the same compound, the MIC in the data set on S. aureus ATCC 25923 (setting [12]) was more than 512 µg/mL. In addition, in the data set on S. aureus ATCC 25923 (setting [13]), the MIC was more than 512 µg/mL. For the same compound, in data set [4], the “Inhibition of Bc FtsZ At 100 μM” value is recorded as “No” and the “Inhibits B. cenocepacia FtsZ GTPase at 100µM?” value is “No”. Further, in the data set on B. cenocepacia, the “activity against B. cenocepacia growth” value is “not active”.
